Test systems include Proteus mirabilis; Staphylococcus aureus; Bacillus megaterium Bm11; Escherichia coli; Escherichia coli ML-35; Klebsiella pneumoniae; Salmonella typhimurium; Pseudomonas aeruginosa; Escherichia coli B; Bacillus subtilis 168; Streptococcus mutans; Escherichia coli K91BK.
Holding throughout (experiment): ≥ marks a high value that may be exact or a test limit, other limits are often not marked, values filed in µg/mL are converted to µM
For test [1], the system named is Candida parapsilosis ATCC 22019.
The test system of test [2] is Candida albicans ATCC 24433.
Test [3] concerns Salmonella enterica subsp. enterica serovar Typhimurium ATCC 14028.
In test [4] the test system is Staphylococcus aureus ATCC 25923.
In test [5] the test system is Escherichia coli DH5alpha.
In test [6] the test system is Micrococcus luteus ATCC 9341.
In test [7] the test system is Micrococcus luteus CCM 144.
The test system of test [8] is Candida albicans F7-39/IDE99.
Test [9] deals with Bacillus anthracis Sterne 34F2.
Test [10] concerns Burkholderia thailandensis.
Test [11] concerns Bacillus subtilis var. niger ATCC 9372.
The subject of test [12] is Staphylococcus epidermidis.
Test [13] has as its system Pseudomonas aeruginosa ATCC 27853.
In test [14] the test system is Staphylococcus aureus ATCC 43300.

The structures appear in SMILES notation. In brackets after ≈: the same amount, converted by molar mass.

The source of these data is DBAASP.

For orientation: MIC means the lowest concentration found to suppress growth. High values mean weaker potency, low ones greater potency.

For the compound `CC(C)C[C@H](NC(=O)[C@H](CCCN=C(N)N)NC(=O)[C@H](CCC(N)=O)NC(=O)[C@H](Cc1cnc[nH]1)NC(=O)[C@@H](NC(=O)[C@H](CCCCN)NC(=O)[C@H](CC(C)C)NC(=O)[C@H](CCC(=O)O)NC(=O)[C@H](CO)NC(=O)[C@H](CCCN=C(N)N)NC(=O)[C@@H](N)CO)C(C)C)C(=O)N[C@@H](Cc1ccccc1)C(N)=O` [SRSELKVHQRLF], the MIC in test [1] and in [2] was at least 267 µM throughout.

In the case of `CC[C@H](C)[C@H](NC(=O)[C@H](CCCCN)NC(=O)[C@H](CCCCN)NC(=O)[C@H](Cc1ccccc1)NC(=O)[C@H](CCCCN)NC(=O)[C@H](CCC(=O)O)NC(=O)CNC(=O)[C@@H](NC(=O)[C@H](CCCCN)NC(=O)[C@H](CCCCN)NC(=O)[C@H](CC(C)C)NC(=O)[C@H](Cc1ccccc1)NC(=O)[C@H](CC(=O)O)NC(=O)[C@H](CCCNC(=N)N)NC(=O)[C@H](CC(C)C)NC(=O)[C@H](CCCNC(=N)N)NC(=O)[C@H](CCCNC(=N)N)NC(=O)[C@H](CC(C)C)NC(=O)[C@H](CC(C)C)NC(=O)CN)[C@@H](C)CC)C(=O)NCC(=O)N[C@H](C=O)Cc1ccc(O)cc1` [GLLRRLRDFLKKIGEKFKKIGY], the MIC in test [3] is 4 µM (≈ 10.7 µg/mL); in the test on Proteus mirabilis it was at least 32 µM; against Staphylococcus aureus, 2 µM (≈ 5.33 µg/mL); with Bacillus megaterium Bm11, 1 µM (≈ 2.66 µg/mL); in test [4], 4 µM (≈ 10.7 µg/mL); against Escherichia coli it was 4 µM (≈ 10.7 µg/mL). Moreover, the minimum inhibitory concentration (MIC) in the test with Escherichia coli ML-35 turned out to be 4 µM (≈ 10.7 µg/mL).

For the compound `CC[C@H](C)[C@H](N)C(=O)N[C@@H](CC(C)C)C(=O)N[C@@H](C)C(=O)N[C@@H](Cc1c[nH]c2ccccc12)C(=O)N[C@@H](CCCCN)C(=O)N[C@@H](Cc1c[nH]c2ccccc12)C(=O)N1CCC[C@H]1C(=O)N[C@@H](Cc1c[nH]c2ccccc12)C(=O)N[C@@H](Cc1c[nH]c2ccccc12)C(=O)N1CCC[C@H]1C(=O)N[C@@H](Cc1c[nH]c2ccccc12)C(=O)N[C@@H](CCCN=C(N)N)C(=O)N[C@@H](CCCN=C(N)N)C(N)=O` [ILAWKWPWWPWRR], the minimum inhibitory concentration (MIC) in test [5] was at least 35 µM; in the test on Klebsiella pneumoniae, 35 µM (≈ 65.8 µg/mL); in the test on Salmonella typhimurium, at least 50 µM; against Pseudomonas aeruginosa, 50 µM (≈ 94 µg/mL); in test [6], 0.4 µM (≈ 0.752 µg/mL).

`CC(C)C[C@H](NC(=O)[C@H](CCCN=C(N)N)NC(=O)[C@H](CCC(N)=O)NC(=O)[C@H](Cc1cnc[nH]1)NC(=O)[C@@H](NC(=O)[C@H](CCCN=C(N)N)NC(=O)[C@H](CC(C)C)NC(=O)[C@H](CCC(=O)O)NC(=O)[C@H](CO)NC(=O)[C@H](CCCN=C(N)N)NC(=O)[C@@H](N)CO)C(C)C)C(=O)N[C@@H](Cc1ccccc1)C(N)=O` [SRSELRVHQRLF]: the MIC in test [1] and in [2] was at least 262 µM throughout.

For the compound `CC[C@H](C)[C@H](NC(=O)CNC(=O)[C@H](C)NC(=O)[C@H](Cc1c[nH]c2ccccc12)NC(=O)[C@H](CC(C)C)NC(=O)[C@@H](N)CC(N)=O)C(=O)N[C@@H](CC(C)C)C(=O)N[C@@H](CCCCN)C(=O)N[C@@H](Cc1cnc[nH]1)C(=O)N[C@H](C(=O)N[C@H](C(=O)N[C@@H](CCCCN)C(N)=O)[C@@H](C)CC)[C@@H](C)CC` [NLWAGILKHIIK], the MIC with Escherichia coli B is 12.5 µM (≈ 17.6 µg/mL); in [7], 2.5 µM (≈ 3.51 µg/mL); in the test on Pseudomonas aeruginosa it was over 100 µM; against Staphylococcus aureus it was 36.7 µM (≈ 51.6 µg/mL); against Bacillus subtilis 168 it was 4.5 µM (≈ 6.32 µg/mL); in test [8], 10.8 µM (≈ 15.2 µg/mL).

In the case of `CC[C@H](C)[C@H](NC(=O)[C@H](CCC(N)=O)NC(=O)[C@H](CCCCN)NC(=O)[C@H](Cc1ccccc1)NC(=O)[C@@H](NC(=O)[C@H](CCC(N)=O)NC(=O)[C@H](CC(C)C)NC(=O)[C@H](CC(C)C)NC(=O)[C@@H](N)CCCCN)[C@@H](C)O)C(=O)N[C@@H](Cc1ccccc1)C(=O)N[C@@H](CCCN=C(N)N)C(=O)O` [KLLQTFKQIFR], in the test on Streptococcus mutans, the MIC is at least 176 µM.

As to `CC[C@H](C)[C@H](NC(=O)[C@H](CCCCN)NC(=O)[C@H](CCCN=C(N)N)NC(=O)CNC(=O)[C@H](CC(C)C)NC(=O)[C@H](CCCN=C(N)N)NC(=O)[C@H](CCCN=C(N)N)NC(=O)[C@H](CC(C)C)NC(=O)CNC(=O)[C@H](CCCN=C(N)N)NC(C)=O)C(=O)N[C@@H](C)C(=O)N[C@@H](Cc1cnc[nH]1)C(=O)NCC(=O)N[C@H](C(=O)N[C@@H](CCCCN)C(=O)N[C@@H](CCCCN)C(=O)NCC(=O)NCC(=O)N1CCC[C@H]1C(=O)N[C@H](C(=O)N[C@H](C(=O)N[C@@H](CC(C)C)C(=O)N[C@@H](CCCN=C(N)N)C(=O)N[C@H](C(=O)N[C@H](C(=O)N[C@@H](CCCN=C(N)N)C(=O)N[C@H](C(=O)N[C@@H](C)C(=O)NCC(N)=O)[C@@H](C)CC)[C@@H](C)CC)[C@@H](C)CC)C(C)C)[C@@H](C)O)C(C)C` [RGLRRLGRKIAHGVKKGGPTVLRIIRIAG], the MIC in the test with Escherichia coli K91BK was at least 100 µM; in test [9], at least 70.2 µM; in [10], at least 100 µM; in [11] it was 7.87 µM (≈ 25.1 µg/mL).

Take `CC(C)C[C@H](NC(=O)[C@H](Cc1ccccc1)NC(=O)[C@H](Cc1cnc[nH]1)NC(=O)[C@H](Cc1ccc(O)cc1)NC(=O)[C@@H](N)CC(C)C)C(=O)N[C@@H](Cc1cnc[nH]1)C(=O)N[C@@H](Cc1c[nH]c2ccccc12)C(=O)N[C@@H](Cc1ccccc1)C(=O)N[C@@H](CCC(N)=O)C(=O)N[C@@H](CCCN=C(N)N)C(=O)N[C@@H](Cc1ccccc1)C(N)=O` [LYHFLHWFQRF]: in the test on Streptococcus mutans, the MIC is at least 78.4 µM.

Take `CC[C@H](C)[C@H](NC(=O)CNC(C)=O)C(=O)NCC(=O)N[C@@H](CCCCN)C(=O)N[C@@H](Cc1cnc[nH]1)C(=O)N[C@H](C(=O)NCC(=O)N[C@@H](CCCCN)C(=O)N[C@@H](C)C(=O)N[C@@H](CC(C)C)C(=O)N[C@@H](CCCCN)C(=O)NCC(=O)N[C@@H](CC(C)C)C(=O)N[C@@H](CCCCN)C(=O)NCC(=O)N[C@@H](CC(C)C)C(=O)N[C@@H](CC(C)C)C(=O)N[C@@H](CCCCN)C(=O)NCC(=O)N[C@@H](CC(C)C)C(=O)NCC(=O)N[C@@H](CCC(=O)O)C(=O)N[C@@H](CO)C(N)=O)C(C)C` [GIGKHVGKALKGLKGLLKGLGES]: the MIC (in the test on Escherichia coli K91BK; in test [9]; in test [11]) was at least 100 µM each time.

Take `CC[C@H](C)[C@H](NC(=O)CN)C(=O)N[C@@H](CCSC)C(=O)N[C@@H](CO)C(=O)N[C@@H](CO)C(=O)N[C@@H](CC(C)C)C(=O)N[C@@H](CCSC)C(=O)N[C@@H](CCCCN)C(=O)N[C@@H](CCCCN)C(=O)N[C@@H](CC(C)C)C(=O)N[C@@H](CCCCN)C(=O)N[C@@H](C)C(=O)N[C@@H](Cc1cnc[nH]1)C(=O)N[C@H](C(=O)N[C@@H](C)C(=O)N[C@@H](CCCCN)C(N)=O)[C@@H](C)CC` [GIMSSLMKKLKAHIAK]: the MIC in [12] is 16 µM (≈ 28.1 µg/mL); with Escherichia coli B, 30 µM (≈ 52.7 µg/mL); in test [13] it was 26 µM (≈ 45.6 µg/mL); in test [7], 3 µM (≈ 5.27 µg/mL); against Pseudomonas aeruginosa, 47 µM (≈ 82.5 µg/mL); against Staphylococcus aureus it was over 100 µM. In addition, the MIC is over 100 µM in test [14], 7 µM (≈ 12.3 µg/mL) against Bacillus subtilis 168 and 23 µM (≈ 40.4 µg/mL) in test [8].

Consider `CC[C@H](C)[C@H](NC(=O)[C@H](CCCCN)NC(=O)[C@H](CCCN=C(N)N)NC(=O)[C@H](CCCCN)NC(=O)[C@H](CC(C)C)NC(=O)[C@H](CCCN=C(N)N)NC(=O)[C@H](CCCN=C(N)N)NC(=O)[C@H](CC(C)C)NC(=O)[C@H](CCCCN)NC(=O)[C@H](CCCN=C(N)N)NC(C)=O)C(=O)N[C@@H](C)C(=O)N[C@@H](Cc1cnc[nH]1)C(=O)N[C@@H](CCCCN)C(=O)N[C@H](C(=O)N[C@@H](CCCCN)C(=O)N[C@@H](CCCCN)C(=O)N[C@@H](Cc1ccc(O)cc1)C(N)=O)C(C)C` [RKLRRLKRKIAHKVKKY], for which the MIC in the test with Escherichia coli K91BK is at least 100 µM; in [9], at least 100 µM; in test [10], at least 100 µM; in test [11], at least 57.4 µM.
